Structures can show the parent of a compound that is named as a salt. Where two headings read alike, the source gives them in different places.

A short description of data set [1]: Uptake of atmospheric water (hygroscopicity). The data set is classed as physicochemical. As to the method:
The solid was hygroscopic. It was ground in a pestle and mortar and allowed to take up atmospheric water at 18° C. After about 22% (w/w) of water was taken up, an equilibrium was reached.

Data set [2] can be described thus: Solubility of lithium clavulanate in aqueous lithium chloride. The following applies: about 20° C., read-out: Solubility in mz/ml of lithium clavulanate (approximate). The data set is classed as physicochemical. As to the method:
The eluate will normally contain the lithium salt, e.g. lithium chloride, at a concentration in the range 0.5 to 2.5M whereas, as indicated above, the salting out effect is most efficient at concentrations in the range 5M to 10 M. It is therefore preferred to concentrate the eluate, for example by evaporation in vacuo, e.g. by a factor of about 5. The solubility of lithium clavulanate at about 20° C. in various concentrations of aqueous lithium chloride is given in the following table: […]

Data set [3] in a line: pKa by potentiometric titration of the salt. The data set is classed as physicochemical.
Data set [4] concerns gram-negative and gram-positive microorganisms. Put plainly: Antibacterial activity. The data set is classed as cell-based. The following applies: range of gram-negative and gram-positive microorganisms.
Data set [5] relates to β-lactamases produced by gram-positive organisms and by gram-negative organisms in classes I-V. Put plainly: Stability to the action of β-lactamases. The class given is biochemical. The following applies: β-lactamases of S. aureus, B. cereus and gram-negative classes I-V (Richmond and Sykes).
The next data set has as its system β-lactamase enzymes. Put plainly: Inhibition of β-lactamase enzymes. The class given is biochemical, gram-positive and gram-negative bacteria.
The nature of data set [6]: Stability in aqueous solution / on storage. The data set is classed as physicochemical.

Take `O=C(O)[C@H]1/C(=C/CO)O[C@@H]2CC(=O)N21` [sodium salt, sodium clavulanate]: in data set [1] (crystalline solid), the hygroscopicity result is “hygroscopic”. Further, the “water taken up at equilibrium” value in data set [1] (ground solid, atmospheric water at 18° C.) is on record as “about 22 % (w/w)”.

For the molecule `O=C(O)[C@H]1/C(=C/CO)O[C@@H]2CC(=O)N21` [lithium clavulanate], the solubility stood at 23500 µg/mL in data set [2] (2.5 M aqueous LiCl); 10200 µg/mL in data set [2] (3.75 M aqueous LiCl); 4100 µg/mL in data set [2] (5.0 M aqueous LiCl); 1800 µg/mL in data set [2] (6.25 M aqueous LiCl); 800 µg/mL in data set [2] (7.5 M aqueous LiCl). The “pKa value of the corresponding acid” value in data set [3] (listed as lithium salt) is recorded as “about 2.3”.

On to `O=C(O)[C@H]1/C(=C/CO)O[C@@H]2CC(=O)N21` [clavulanic acid, (2R, 5R, Z)-3-(2-hydroxyethylidene)-7-oxo-4-oxa-1-azabicyclo[3,2,0]heptane-2-carboxylic acid], for which the antibacterial activity entry in data set [4] is given as “have antibacterial activity”. Also, the “stability to the action of β-lactamases” value in data set [5] is listed as “stable”. Further, the “inhibition of class I β-lactamase enzymes” value with β-lactamase enzymes (a number of class I enzymes (e.g. Bacteroides fragilis, Proteus vulgaris, Proteus morganii, Proteus rettgeri, Enterobacter cloacae, Citrobacter freundii, Providencia species, Hafnia alvei)) is given as “inhibited”. Besides, the “ability to inhibit β-lactamase enzymes” value with β-lactamase enzymes (enzymes of gram-positive organisms (S. aureus, B. cereus) and classes II-V from gram-negative bacteria) is reported as “possess the ability to inhibit β-lactamase enzymes”. Also, the “stability of the free acid” value in data set [6] (after its formation) is on record as “rather unstable”. Besides, the “stability in aqueous solution” value in data set [6] (aqueous solution, dependence on pH) is recorded as “rather unstable in aqueous solution outside the pH range 5.5 to 8”.

Regarding `O=C(O)[C@H]1/C(=C/CO)O[C@@H]2CC(=O)N21` [calcium salt], in data set [3] (read-out: pKa value of the corresponding acid), the pKa was approximately 2.4.

Broadly, the pKa is the negative logarithm of the acid dissociation constant.

Values taken from patent publication US4144242A, “Process for the purification of clavulanic acid” (Glaxo Laboratories Limited, priority 1975, dated 1979).
